Data set [1] deals with T1, HAPT1 (Trypanosoma brucei brucei, UniProt Q6ZXT3). Nature of the data set: cell-based. The format is cell-based, T. b. brucei.
Data set [2] has as its target T1, HAPT1. As to the kind of experiment: cell-based. The format is cell-based, T. b. gambiense.
The subject of data set [3] is LAPT1. As to the kind of experiment: [3H]pentamidine low-affinity transport, bloodstream forms. Format: cell-based, T. b. brucei. Particulars: for Km: read-out: LAPT1 pentamidine Km.
Data set [4] addresses T2, TbAQP2 (Trypanosoma brucei brucei, UniProt Q6ZXT3). As to the kind of experiment: cell-based.
The target in data set [5] is T1, HAPT1. As to the kind of experiment: [3H]pentamidine high-affinity transport, bloodstream forms.
Data set [6] concerns the target T1, HAPT1. The arrangement: endogenous in cells; host or cells: bloodstream-form T. b. brucei Lister 427 derivatives (s427 WT, TbAT1-KO, 2T1: endogenous AQP2; B48/AQP2: wild-type TbAQP2 from vector pHDK21, derived from pHD1336). Particulars: cited from earlier work.
The subject of data set [7] is Leishmania mexicana promastigotes. As to the kind of experiment: Alamar blue drug susceptibility assay, L. mexicana promastigotes expressing T. brucei aquaporins. The format is cell-based. The note with it: for Sensitization by expression of TbAQP2: L. mexicana promastigotes expressing TbAQP2 vs empty-vector control. The protocol:
(§1) Drug susceptibilities of the bloodstream-form trypanosomes[47] and L. mexicana promastigotes[48] were determined using the Alamar blue assay exactly as described previously, measuring fluorescence in 96-well plates with a FLUOstar Optima (BMG Labtech, Durham, NC, USA) at wavelengths of 544 nm for excitation and 620 nm for emission. EC50 values were calculated by non-linear regression using an equation for a sigmoidal dose–response curve with variable slope (GraphPad Prism 5.0; GraphPad Software Inc., San Diego, CA, USA).
TbAQP2 and TbAQP3 were amplified from genomic DNA by PCR using Phusion polymerase (Thermo Scientific) and subcloned into the pNUS vector for expression in Leishmania.[49] The construct was verified by sequencing before transfection into L. mexicana promastigotes using an Amaxa Nucleofector (program U-33).
On the technique in general: The colour change of resazurin is a common sign of viable cells or microbes.

The test system of data set [8] is bloodstream-form T. b. brucei. Nature of the data set: Alamar blue drug susceptibility assay, bloodstream-form trypanosomes. Format: cell-based. Particulars: for Increase in susceptibility on expression of TbAT1: TbAT1 expressed in B48 (Figure S6); for EC50: Trypanosoma brucei. The protocol:
as §1

Data set [9] has as its system N=C(N)c1ccc(OCCCCCOc2ccc(C(=N)N)cc2)cc1. As to the kind of experiment: cells, lysate or membranes. Particulars: pH 7.3.
In data set [10] the test system is procyclic T. b. brucei 247MR. Format: cell-based.
The subject of data set [11] is procyclic T. b. gambiense 386MR. The format is cell-based.
In data set [12] the target is T3, TbAQP3 (Trypanosoma brucei brucei, UniProt Q6ZXT2).
T3 construct: expressed in transfected cells; host or cells: Leishmania mexicana promastigotes, pNUS vector
T3 sequence (Q6ZXT2 whole entry): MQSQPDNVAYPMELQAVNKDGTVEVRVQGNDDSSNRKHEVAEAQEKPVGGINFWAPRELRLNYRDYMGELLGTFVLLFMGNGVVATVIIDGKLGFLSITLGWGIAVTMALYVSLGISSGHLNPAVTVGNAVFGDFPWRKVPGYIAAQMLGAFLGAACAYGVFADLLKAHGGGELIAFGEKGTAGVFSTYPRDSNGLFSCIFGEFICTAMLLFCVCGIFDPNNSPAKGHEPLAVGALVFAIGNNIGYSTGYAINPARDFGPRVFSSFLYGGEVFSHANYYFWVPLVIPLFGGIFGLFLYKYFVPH
Format: cell-based, T. b. brucei. Particulars: 100 nM [3H]pentamidine over 5 min; TbAQP3-transfected promastigotes.

In data set [13] the test system is T. b. brucei. The note with it: cited from earlier work.
Data set [14] deals with LAPT1. The note with it: 1 μM [3H]pentamidine; for Km: read-out: LAPT1 Km.
Data set [15] has as its system LAPT1. The note with it: 1 μM [3H]pentamidine; for Km: read-out: LAPT1 Km. This is another data set of the same source.
For data set [16], the target named is T2, TbAQP2.
Data set [17] has as its system T. b. gambiense. Particulars: cited from earlier work.
Data set [18] relates to T. b. rhodesiense. The note with it: cited from earlier work.
Data set [19] concerns bloodstream-form T. b. brucei. The note with it: cited from earlier work.
For data set [20], the system named is T. b. brucei 247MR. Details: method as in PMID 9225768. The note with it: cited from earlier work.
For data set [21], the system named is LAPT1. Particulars: cited from earlier work.
The mark [22] stands for this setting: B48 + TbAQP2 vs B48 empty vector (Figure 1).
Setting [23] is: P1000 + TbAQP2 vs P1000 empty vector (Figure 1).

Read-outs that look alike come from different tables or passages of the source.

As usually defined, the Ki is the dissociation constant of the complex between target and ligand, obtained from inhibition or displacement. The Km is the concentration of substrate that gives half-maximal velocity. As a reminder, the EC50 is the concentration that produces a half-maximal response. What is called IC50 is the midpoint of a concentration-inhibition curve.
Throughout, for susceptibility: key: highly sensitive (+++); ++: indicated on a relative scale; +: indicated on a relative scale; +/−: indicated on a relative scale; −: indicated on a relative scale; highly resistant to pentamidine or melaminophenyl arsenicals (−−−).

T1 sequence (Q6ZXT3 whole entry): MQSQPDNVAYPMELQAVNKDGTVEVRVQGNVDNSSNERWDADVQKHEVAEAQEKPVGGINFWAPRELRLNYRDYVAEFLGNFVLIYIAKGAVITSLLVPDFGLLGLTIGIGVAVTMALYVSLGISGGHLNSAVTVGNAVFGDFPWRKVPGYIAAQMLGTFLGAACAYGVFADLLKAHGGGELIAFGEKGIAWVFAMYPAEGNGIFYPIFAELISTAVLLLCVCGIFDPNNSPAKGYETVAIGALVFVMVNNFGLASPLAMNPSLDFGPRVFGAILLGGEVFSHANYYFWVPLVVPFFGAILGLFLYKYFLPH
T2 sequence (Q6ZXT3 whole entry): as above

Take `N=C(N)c1ccc(OCCCOc2ccc(C(=N)N)cc2)cc1` [propamidine]: the Ki in data set [1] was 14 ± 2 µM; in data set [2] it was 22 ± 6 µM; in [4], 8.1 ± 0.8 µM; in [5], 15.2 ± 1.6 µM; in data set [6] (TbAT1-KO bloodstream forms, ref Matovu et al. 14), 13 ± 3 µM; in data set [6] (WT s427 bloodstream forms, ref De Koning 17), 4.6 ± 0.7 µM. Besides, the “IC50, inhibition of [3H]pentamidine uptake” value in [3] (aqp2 null cells, 30 nM [3H]pentamidine, 1 mM adenosine) is listed as “insensitive”.

Consider `C[C@@H]1[C@H](O)[C@@H](C)/C=C/C=C/C=C/C=C/C=C/C=C/C=C/[C@H](O[C@@H]2O[C@H](C)[C@@H](O)[C@H](N)[C@@H]2O)C[C@@H]2O[C@](O)(C[C@@H](O)C[C@@H](O)[C@H](O)CC[C@@H](O)C[C@@H](O)CC(=O)O[C@H]1C)C[C@H](O)[C@H]2C(=O)O` [amphotericin B], for which the “Sensitization by expression of TbAQP2” value in data set [7] is on record as “no statistically significant effect”.

On to `C[C@H]1O[C@@H](n2cnc3c(N)ncnc32)[C@H](O)[C@@H]1O` [5′-deoxyadenosine], for which the “Increase in susceptibility on expression of TbAT1” value (“Increase in susceptibility” below) in data set [8] (P < 0.001) is greater than 20 fold.

For the compound TbAQP2 (Trypanosoma brucei brucei), the Km in [9] (other: L. mexicana/TbAQP2 promastigotes) was determined as 0.055 ± 0.004 µM.

With `Nc1ncnc2c1ncn2[C@@H]1O[C@H](CO)C[C@H]1O` [cordycepin, 3′-deoxyadenosine], the “Increase in susceptibility” value in data set [8] (P < 0.001) is recorded as greater than 20 fold.

For `N=C(N)c1ccc(/N=N/Nc2ccc(C(=N)N)cc2)cc1` [diminazene], the “Reversal of resistance on expression of TbAQP2” value (“Reversal of resistance” below) in [8] (setting [22]) and in data set [8] (setting [23]) was “not affected” throughout. In data set [7], the “Sensitization by expression of TbAQP2” value is on record as “no statistically significant effect”. The affinity in data set [4] corresponds to a Ki of 100 ± 21 µM.

As to HAPT1 (Trypanosoma brucei brucei), the Michaelis constant (Km) in data set [9] (other: B48/AQP2 bloodstream forms) is 0.046 ± 0.014 µM.

As to `Cl.Cl.NCCS[As](SCCN)c1ccc(Nc2nc(N)nc(N)n2)cc1` [Cymelarsan], the entries for the “Reversal of resistance” value in [8] (setting [22]) and in data set [8] (setting [23]) were 16.7 fold and 15.0 fold, respectively. In addition, the Difference in susceptibility worked out at 4.1 fold in [8] (aqp2 null vs aqp2 null expressing WT AQP2, P < 0.001) and 1.4 fold in data set [8] (aqp2 null vs aqp2 null expressing chAQP2/3, P < 0.05). Besides, the “Resistance relative to parental line” value turned out to be 755 fold in data set [10] and 83 fold in data set [11].

Turning to `N=C(N)c1ccc(OCCCCCOc2ccc(C(=N)N)cc2)cc1` [pentamidine], the “Reversal of resistance” value in data set [8] (setting [22]) is 50 fold; in data set [8] (setting [23]), 240 fold. Further, the concentration for a half-maximal effect (EC50) in data set [8] came to 0.158 ± 0.002 µM; in data set [8] (aqp2/aqp3 null expressing AQP3^sf2, P < 0.02), 0.131 ± 0.003 µM. The “Resistance relative to parental line” value in data set [10] was 74 fold; in [11] it was 90 fold. In [7], the “Sensitization by expression of TbAQP2” value came out at 40 fold. In addition, in data set [7] (L. mexicana promastigotes expressing TbAQP3, two independent clones), the “Sensitization by expression of TbAQP3” value is recorded as 1.5–2.5 fold. The “HAPT1 Vmax” value in data set [1] (STIB 247WT procyclics, 25 nM [3H]pentamidine) is on record as 0.008 ± 0.002 pmol/10^7 cells/s; in [2] (STIB 386WT procyclics, 25 nM [3H]pentamidine) it was 0.007 ± 0.002 pmol/10^7 cells/s. The “Increase of [3H]pentamidine uptake on expression of TbAQP2” value in [3] (1 μM pentamidine, B48 + TbAQP2 vs B48) stood at 2.5 fold; in data set [5] (50 nM pentamidine, B48 + TbAQP2 vs B48), 27.7 fold. In addition, the “Uptake of [3H]pentamidine compared with control” value in data set [3] (1 μM pentamidine, B48 compared with TbAT1-KO) is “not significantly different”; in [12], “not significantly different”. In addition, the IC50 amounted to 29.9 ± 4.3 µM in data set [3] (read-out: IC50, inhibition of [3H]pentamidine uptake, low-affinity phase, 2T1 control cells, 30 nM [3H]pentamidine, 1 mM adenosine, n = 3); 33.4 ± 9.5 µM in data set [3] (read-out: IC50, inhibition of [3H]pentamidine uptake, aqp2 null cells, 30 nM [3H]pentamidine, 1 mM adenosine); 0.06 ± 0.017 µM in data set [5]. Moreover, the Km in [3] (B48/AQP2 bloodstream forms) turned out to be 66 ± 1 µM; in [3] (P1000 bloodstream forms) it was 99 ± 24 µM; in data set [14] (STIB 247MR procyclics), 56 ± 19 µM; in [14] (STIB 247WT procyclics) it was 49 ± 19 µM; in data set [15] (STIB 386MR procyclics), 51 ± 2 µM; in data set [15] (STIB 386WT procyclics) it was 46 ± 9 µM. Also, the Michaelis-Menten constant (Km) was 56 ± 7 µM in data set [21] (read-out: LAPT1 pentamidine Km, B48 bloodstream forms, ref Bridges et al. 16); 50 ± 17 µM in [21] (read-out: LAPT1 pentamidine Km, TbAT1-KO bloodstream forms, ref Matovu et al. 14); 56 ± 8 µM in data set [21] (read-out: LAPT1 pentamidine Km, WT s427 bloodstream forms, ref De Koning 17); 56.2 ± 8.3 µM in data set [21] (read-out: published pentamidine Km for LAPT1). The Susceptibility result in data set [13] was “+++ and +/− and ++ and −”; in data set [17] it was “+++ and +/−”; in data set [18], “+++ and −”. The “LAPT1 Vmax” value is given as 0.41 ± 0.10 pmol/10^7 cells/s in data set [14] (STIB 247MR procyclics), 0.65 ± 0.17 pmol/10^7 cells/s in [14] (STIB 247WT procyclics), 1.2 ± 0.4 pmol/10^7 cells/s in data set [15] (STIB 386MR procyclics) and 0.70 ± 0.15 pmol/10^7 cells/s in [15] (STIB 386WT procyclics). Besides, the “Rate of [3H]pentamidine uptake” value is reported as 0.00026 ± 1.8 × 10^−6 pmol/10^7 cells/s in data set [16] (50 nM [3H]pentamidine in the presence of 1 mM unlabelled pentamidine) and 0.032 ± 0.002 pmol/10^7 cells/s in data set [16] (50 nM [3H]pentamidine, over 15 s). The “Increase of [3H]pentamidine uptake” value in data set [16] (100 nM [3H]pentamidine over 5 min, TbAQP2-expressing promastigotes vs control) is roughly 15 fold. In data set [19], the “Loss of sensitivity on homozygous deletion of TbAT1” value is 2.5–3 fold. Moreover, in [20], the “Pentamidine resistance in vivo relative to parental line” value is on record as greater than 50 fold. In addition, the “Reduction of [3H]pentamidine uptake” value in data set [5] (50 nM [3H]pentamidine, B48 compared with TbAT1-KO control) is 15.5 fold.

With `Nc1ncnc2c1ccn2[C@@H]1O[C@H](CO)[C@@H](O)[C@H]1O` [tubercidin, 7-deazaadenosine], in [8] (P < 0.001), the “Increase in susceptibility” value is on record as greater than 20 fold. In addition, the EC50 in data set [8] (s427 WT, read-out: EC50) was 0.23 ± 0.03 µM; in [8] (tbat1−/− strain, read-out: EC50), 2.65 ± 0.23 µM. Moreover, the Decrease in susceptibility in [8] (tbat1−/− strain relative to s427 WT) is listed as 10 fold.

The values are drawn from PMC3922157 (Journal of Antimicrobial Chemotherapy, 2013).
